This is an account of results in patent EP3696177A1, “HETEROCYCLIC COMPOUNDS FOR THE CONTROL OF INVERTEBRATE PESTS” (BASF SE, priority 2019, dated 2020).

The test system of the first experiment is dichromothrips corbetti. The experiment is described as follows: Orchid thrips floral-immersion test. In kind it is in vivo. As to conditions: 72 h, read-out: mortality in comparison with untreated controls. As for the experimental part:
Dichromothrips corbetti adults used for bioassay are obtained from a colony maintained continu-ously under laboratory conditions. For testing purposes, the test compound is diluted in a 1:1 mix-ture of acetone:water (vol:vol), plus Kinetic at a rate of 0.01% v/v.
Thrips potency of each compound is evaluated by using a floral-immersion technique. Each orchid petal is dipped into treatment solution and allowed to dry in Petri dishes. Treated petals are placed into individual re-sealable plastic along with about 20 adult thrips. All test arenas are held under dark condition and a temperature of about 28°C for duration of the assay. The percent mor-tality is recorded 72 hours after treatment.
Consider `CN1C(=O)SC(NC(=O)c2ccc(C3=NOC(c4cc(Cl)cc(Cl)c4)(C(F)(F)F)C3)cc2Cl)C1=O` (stereo not drawn) [Compound I-1-1], for which the mortality at 300 ppm was greater than 75%.

A further experiment deals with Plutella xylostella. The experiment is described as follows: Diamond back moth (Plutella xylostella) cabbage leaf disc dip test. The class given is in vivo. The settings on record: foliar, 72 h, read-out: mortality in comparison with untreated controls. The procedure:
The active compound is dissolved at the desired concentration in a mixture of 1:1 (vol:vol) distilled water: acetone. Surfactant (Kinetic) is added at a rate of 0.01% (vol/vol). The test solution is pre-pared at the day of use.
Cabbage leaf discs (60mm in diameter) are dipped in test solution and air-dried. Treated leaves are placed in petri dishes lined with moistened filter paper and inoculated with ten 3rd instar larvae. Mortality is recorded 72 hours after treatment. Feeding damage is also recorded using a scale of 0-100%.
Take `CN1C(=O)SC(NC(=O)c2ccc(C3=NOC(c4cc(Cl)cc(Cl)c4)(C(F)(F)F)C3)cc2Cl)C1=O` (stereo not drawn) [Compound I-1-1]: the mortality at 300 ppm was greater than 75%.

Another experiment deals with Nephotettix virescens. The experiment is described as follows: Rice green leafhopper (Nephotettix virescens) spray test on rice seedlings. In kind it is in vivo. As to conditions: adults, after 72 hours, read-out: mortality in comparison with untreated controls. As for the experimental part: Four to five-week old rice seedlings with cut upper leaf portion are cleaned and washed 24 hours before spraying. The active compounds are formulated in 1:1 acetone:water (vol:vol), and 0.01% vol/vol surfactant (Kinetic) is added. Potted rice seedlings are sprayed with 5-6 ml test solution, air dried, covered with Mylar cages and inoculated with 10 adults. Treated rice plants are kept at about 28-29°C and relative humidity of about 50-60%. Percent mortality is recorded after 72 hours.
As to `CN1C(=O)SC(NC(=O)c2ccc(C3=NOC(c4cc(Cl)cc(Cl)c4)(C(F)(F)F)C3)cc2Cl)C1=O` (stereo not drawn) [Compound I-1-1], the mortality at 300 ppm is greater than 75%.

The next experiment has as its system Nezara viridula. The experiment is described as follows: Green soldier stink bug (Nezara viridula) soybean pod spray test. The class given is in vivo. The settings on record: 120 h, late 3rd instar N. viridula, after 5 days, read-out: mortality in comparison with untreated controls. The procedure:
The active compound is dissolved at the desired concentration in a mixture of 1:1 (vol:vol) distilled water: aceteone. Surfactant (Kinetic) is added at a rate of 0.01% (vol/vol).The test solution is prepared at the day of use.
Soybean pods are placed in 90 x 50 mm glass Petri dishes lined with moistened filter paper and inoculated with ten late 3rd instar N. viridula. Using a hand atomizer, an approximately 2 ml solution is sprayed into each Petri dish. Treated set-up is kept at about 25-26°C and relative humidity of about 65-70%. Percent mortality is recorded after 5 days.
For the compound `CN1C(=O)SC(NC(=O)c2ccc(C3=NOC(c4cc(Cl)cc(Cl)c4)(C(F)(F)F)C3)cc2Cl)C1=O` (stereo not drawn) [Compound I-1-1], the mortality at 300 ppm is greater than 75%.

A further experiment concerns Megoura viciae. The experiment is described as follows: Vetch aphid (Megoura viciae) broad bean leaf disk test. The settings on record: foliar, 120 h, read-out: mortality in comparison with untreated controls. The class given is in vivo. As for the experimental part: For evaluating control of vetch aphid (Megoura viciae) through contact or systemic means the test unit consisted of 24-well-microtiter plates containing broad bean leaf disks.
The compounds were formulated using a solution containing 75% v/v water and 25% v/v DMSO. Different concentrations of formulated compounds were sprayed onto the leaf disks at 2.5 µl, us-ing a custom built micro atomizer, at two replications.
After application, the leaf disks were air-dried and 5 - 8 adult aphids placed on the leaf disks in-side the microtiter plate wells. The aphids were then allowed to suck on the treated leaf disks and incubated at about 23 + 1°C and about 50 + 5 % relative humidity for 5 days. Aphid mortality and fecundity was then visually assessed.
As to `CN1C(=O)SC(NC(=O)c2ccc(C3=NOC(c4cc(Cl)cc(Cl)c4)(C(F)(F)F)C3)cc2Cl)C1=O` (stereo not drawn) [Compound I-1-1], the mortality at 2500 ppm was greater than 75%.

In the next experiment the test system is Myzus persicae. The experiment is described as follows: Green peach aphid (Myzus persicae) artificial diet/membrane systemic test. The settings on record: 72 h, read-out: mortality in comparison with untreated controls. In kind it is in vivo. An excerpt: For evaluating control of green peach aphid (Myzus persicae) through systemic means the test unit consisted of 96-well-microtiter plates containing liquid artificial diet under an artificial membrane.
The compounds were formulated using a solution containing 75% v/v water and 25% v/v DMSO. Different concentrations of formulated compounds were pipetted into the aphid diet, using a cus-tom built pipetter, at two replications.
After application, 5 - 8 adult aphids were placed on the artificial membrane inside the microtiter plate wells. The aphids were then allowed to suck on the treated aphid diet and incubated at about 23 + 1°C and about 50 + 5 % relative humidity for 3 days. Aphid mortality and fecundity was then visually assessed.
For the compound `CN1C(=O)SC(NC(=O)c2ccc(C3=NOC(c4cc(Cl)cc(Cl)c4)(C(F)(F)F)C3)cc2Cl)C1=O` (stereo not drawn) [Compound I-1-1], the mortality at 2500 ppm was greater than 75%.

The next experiment concerns Anthonomus grandis. The experiment is described as follows: Boll weevil (Anthonomus grandis) insect diet microtiter plate test. In kind it is in vivo. The settings on record: 120 h, read-out: mortality in comparison with untreated controls (egg and larval mortality). As for the experimental part: For evaluating control of boll weevil (Anthonomus grandis) the test unit consisted of 96-well-microtiter plates containing an insect diet and 5-10 A. grandis eggs.
The compounds were formulated using a solution containing 75% v/v water and 25% v/v DMSO. Different concentrations of formulated compounds were sprayed onto the insect diet at 5 µl, using a custom built micro atomizer, at two replications.
After application, microtiter plates were incubated at about 25 + 1°C and about 75 + 5 % relative humidity for 5 days. Egg and larval mortality was then visually assessed.
Turning to `CN1C(=O)SC(NC(=O)c2ccc(C3=NOC(c4cc(Cl)cc(Cl)c4)(C(F)(F)F)C3)cc2Cl)C1=O` (stereo not drawn) [Compound I-1-1], the mortality at 2500 ppm was greater than 75%.

For the next experiment, the system named is Tetranychus kanzawai. The experiment is described as follows: Red spider mite (Tetranychus kanzawai) spray test on cowpea beans. In kind it is in vivo. As to conditions: topical, 72 h, read-out: mortality in comparison with untreated controls. The procedure:
The active compound is dissolved at the desired concentration in a mixture of 1:1 (vol:vol) distilled water: acetone. Add surfactant (Kinetic) is added at a rate of 0.01% (vol/vol). The test solution is prepared at the day of use.
Potted cowpea beans of 4-5 days of age are cleaned with tap water and sprayed with 1-2 ml of the test solution using air driven DeVilbiss® hand atomizer at 20- 30 psi (≈ 1,38 to 2,07 bar). The treated plants are allowed to air dry and afterwards inoculated with 30 or more mites by clipping a cassava leaf section from rearing population. Treated plants are placed inside a holding room at about 25-26°C and about 65-70% relative humidity. Estimate percent mortality is assessed 72 hours after treatment.
In the case of `CN1C(=O)SC(NC(=O)c2ccc(C3=NOC(c4cc(Cl)cc(Cl)c4)(C(F)(F)F)C3)cc2Cl)C1=O` (stereo not drawn) [Compound I-1-1], the mortality at 300 ppm is greater than 75%.

The next experiment concerns Heliothis virescens. The experiment is described as follows: Tobacco budworm (Heliothis virescens) insect diet microtiter plate test. The settings on record: 120 h, read-out: mortality in comparison with untreated controls (egg and larval mortality). In kind it is in vivo. As for the experimental part: For evaluating control of tobacco budworm (Heliothis virescens) the test unit consisted of 96-well-microtiter plates containing an insect diet and 15-25 H. virescens eggs.
The compounds were formulated using a solution containing 75% v/v water and 25% v/v DMSO. Different concentrations of formulated compounds were sprayed onto the insect diet at 10 µl, us-ing a custom built micro atomizer, at two replications.
After application, microtiter plates were incubated at about 28 + 1°C and about 80 + 5 % relative humidity for 5 days. Egg and larval mortality was then visually assessed.
In the case of `CN1C(=O)SC(NC(=O)c2ccc(C3=NOC(c4cc(Cl)cc(Cl)c4)(C(F)(F)F)C3)cc2Cl)C1=O` (stereo not drawn) [Compound I-1-1], the mortality at 2500 ppm was greater than 75%.

Another experiment relates to Aedes aegypti. The experiment is described as follows: whole plant or invertebrate. In kind it is in vivo. As to conditions: 48 h, A. aegypti larvae, incubated 2 days, read-out: mortality in comparison with untreated controls (larval mortality). The procedure: For evaluating control of yellow fever mosquito (Aedes aegypti) the test unit consisted of 96-well-microtiter plates containing 200µl of tap water per well and 5-15 freshly hatched A. aegypti larvae.
The active compounds were formulated using a solution containing 75% (v/v) water and 25% (v/v) DMSO. Different concentrations of formulated compounds or mixtures were sprayed onto the insect diet at 2.5µl, using a custom built micro atomizer, at two replications.
After application, microtiter plates were incubated at 28 + 1°C, 80 + 5 % RH for 2 days. Larval mortality was then visually assessed.
On to `CN1C(=O)SC(NC(=O)c2ccc(C3=NOC(c4cc(Cl)cc(Cl)c4)(C(F)(F)F)C3)cc2Cl)C1=O` (stereo not drawn) [Compound I-1-1], for which the mortality at 2500 ppm was greater than 75%.

The test system of the next experiment is Caenorhabditis elegans. The experiment is described as follows: Caenorhabditis elegans liquid diet microtiter plate test. The settings on record: 96 h, read-out: mortality in comparison with untreated controls (nematode motility (mortality)). The class given is in vivo. As for the experimental part:
For evaluating control of Caenorhabditis elegans through contact or systemic means the test unit consisted of 96-well-microtiter plates containing a liquid diet.
The compounds or mixtures were formulated using a solution containing 75% water and 25% DMSO. Different concentrations of formulated compounds were sprayed into the microtiter plate wells at 5µl per well, using a custom built micro atomizer, at two replications. Mixed instar 60-100 C. elegans were transferred into the micro-titer plate wells. After application, the nematodes were incubated at 18 + 1°C, 70 + 5 % RH for 4 days. Nematode motility (mortality) was then visually assessed.
For the compound `CN1C(=O)SC(NC(=O)c2ccc(C3=NOC(c4cc(Cl)cc(Cl)c4)(C(F)(F)F)C3)cc2Cl)C1=O` (stereo not drawn) [Compound I-1-1], the mortality at 2500 ppm was greater than 75%.

For another experiment, the system named is Aphis craccivora. The experiment is described as follows: Cowpea aphid (Aphis craccivora) spray test on potted cowpea plants. The class given is in vivo. As to conditions: aphids of various stages, after 72 hours, read-out: mortality in comparison with untreated controls. As for the experimental part:
The active compound is dissolved at the desired concentration in a mixture of 1:1 (vol: vol) distilled water: acetone. Surfactant (Kinetic) is added at a rate of 0.01% (vol/vol). The test solution is prepared at the day of use.
Potted cowpea plants are colonized with approximately 30 - 50 aphids of various stages by man-ually transferring aphid-infested leaf clippings 24 hours before application. Plants are sprayed with the test solutions using a DeVilbiss® hand atomizer at 20- 30 psi (≈ 1.38 to 2.07 bar) after the pest population has been checked. Treated plants are maintained on light carts at about 25- 26°C. Estimate percent mortality is assessed after 72 hours.
Regarding `CN1C(=O)SC(NC(=O)c2ccc(C3=NOC(c4cc(Cl)cc(Cl)c4)(C(F)(F)F)C3)cc2Cl)C1=O` (stereo not drawn) [Compound I-1-1], the mortality at 300 ppm is greater than 75%.

As usually defined, the mortality is the percentage killed.
